These results are taken from PMC9501035, “Synthesis of Novel N-Methylmorpholine-Substituted Benzimidazolium Salts as Potential α-Glucosidase Inhibitors” (Molecules, 2022).

Where “and” joins values, the source holds several entries; their conditions need not be identical. Identical values can stand only once.

The target of the first test is α-glucosidase. The test can be described thus: In vitro α-glucosidase inhibition (spectroscopic method). Type of test: biochemical. The note with it: means of experiments, n = 3. As for the experimental part: α-Glucosidase inhibitions were determined following a modified spectroscopic method. The detailed protocol was already reported. Each experiment was carried out thrice, and percentage inhibitions were determined with the help of the following expression, followed by the determination of IC50 values:% Inhibition = [(Acontrol − Asample)/Acontrol] × 100 where ‘A’ stands for absorbance.
The IC50 is the concentration that inhibits the measured activity by half. As to `O=C(C[n+]1c(CN2CCOCC2)n(Cc2ccccc2)c2ccccc21)Nc1ccccc1Cl` [Compound 5a, 1-Benzyl-3-(2-((2-chlorophenyl)amino)-2-oxoethyl)-2-(morpholinomethyl)-1H-benzo[d]imidazol-3-ium chloride], the half-inhibitory concentration (IC50) is 50 ± 0.04 µM.

Compound `O=C(C[n+]1c(CN2CCOCC2)n(Cc2ccccc2)c2ccccc21)Nc1ccc(Cl)cc1` [Compound 5b, 1-Benzyl-3-(2-((4-chlorophenyl)amino)-2-oxoethyl)-2-(morpholinomethyl)-1H-benzo[d]imidazol-3-ium chloride] had an IC50 of 35 ± 0.02 µM.

As for `O=C(C[n+]1c(CN2CCOCC2)n(Cc2ccccc2)c2ccccc21)Nc1ccccc1Br` [Compound 5c, 1-Benzyl-3-(2-((2-bromophenyl)amino)-2-oxoethyl)-2-(morpholinomethyl)-1H-benzo[d]imidazol-3-ium chloride], half-maximal inhibition (IC50) required 55 ± 0.14 µM.

For `O=C(C[n+]1c(CN2CCOCC2)n(Cc2ccccc2)c2ccccc21)Nc1ccc(Br)cc1` [Compound 5d, 1-Benzyl-3-(2-((4-bromophenyl)amino)-2-oxoethyl)-2-(morpholinomethyl)-1H-benzo[d]imidazol-3-ium chloride], the IC50 was found to be 15 ± 0.03 µM.

Consider `O=C(C[n+]1c(CN2CCOCC2)n(Cc2ccccc2)c2ccccc21)Nc1ccccc1[N+](=O)[O-]` [Compound 5e, 1-Benzyl-3-(2-((2-nitrophenyl)amino)-2-oxoethyl)-2-(morpholinomethyl)-1H-benzo[d]imidazol-3-ium chloride], for which 30 ± 0.11 µM corresponded to half-maximal inhibition (IC50).

On to `O=C(C[n+]1c(CN2CCOCC2)n(Cc2ccccc2)c2ccccc21)Nc1cccc([N+](=O)[O-])c1` [Compound 5f, 1-Benzyl-3-(2-((3-nitrophenyl)amino)-2-oxoethyl)-2-(morpholinomethyl)-1H-benzo[d]imidazol-3-ium chloride], for which the concentration for half-maximal inhibition (IC50) stood at 19 ± 0.06 µM.

With `O=C(C[n+]1c(CN2CCOCC2)n(Cc2ccccc2)c2ccccc21)Nc1ccc([N+](=O)[O-])cc1` [Compound 5g, 1-Benzyl-3-(2-((4-nitrophenyl)amino)-2-oxoethyl)-2-(morpholinomethyl)-1H-benzo[d]imidazol-3-ium chloride], the half-maximal inhibitory concentration (IC50) is 25 ± 0.106 µM.

Compound `Cc1ccccc1NC(=O)C[n+]1c(CN2CCOCC2)n(Cc2ccccc2)c2ccccc21` [Compound 5h, 1-Benzyl-3-(2-((2-methylphenyl)amino)-2-oxoethyl)-2-(morpholinomethyl)-1H-benzo[d]imidazol-3-ium chloride] returned a half-maximal inhibitory concentration (IC50) of 21 ± 0.076 µM.

Regarding `Cc1cccc(NC(=O)C[n+]2c(CN3CCOCC3)n(Cc3ccccc3)c3ccccc32)c1` [Compound 5i, 1-Benzyl-3-(2-((3-methylphenyl)amino)-2-oxoethyl)-2-(morpholinomethyl)-1H-benzo[d]imidazol-3-ium chloride], the IC50 was determined as 47 ± 0.05 µM.

On to `Cc1ccc(NC(=O)C[n+]2c(CN3CCOCC3)n(Cc3ccccc3)c3ccccc32)cc1` [Compound 5j, 1-Benzyl-3-(2-((4-methylphenyl)amino)-2-oxoethyl)-2-(morpholinomethyl)-1H-benzo[d]imidazol-3-ium chloride], for which inhibition was half-maximal at 88 ± 0.08 µM (IC50).

Consider `COc1ccccc1NC(=O)C[n+]1c(CN2CCOCC2)n(Cc2ccccc2)c2ccccc21` [Compound 5k, 1-Benzyl-3-(2-((2-methoxyphenyl)amino)-2-oxoethyl)-2-(morpholinomethyl)-1H-benzo[d]imidazol-3-ium chloride], for which the IC50 is 26 µM and 25 µM.

`COc1ccc(NC(=O)C[n+]2c(CN3CCOCC3)n(Cc3ccccc3)c3ccccc32)cc1` [Compound 5l, 1-Benzyl-3-(2-((4-methoxyphenyl)amino)-2-oxoethyl)-2-(morpholinomethyl)-1H-benzo[d]imidazol-3-ium chloride] registered an IC50 of 65 ± 0.015 µM.

In turn, `O=C(C[n+]1c(CN2CCOCC2)n(Cc2ccccc2)c2ccccc21)Nc1ccccc1` [Compound 5m, 1-Benzyl-2-(morpholinomethyl)-3-(2-oxo-2-(phenylamino)ethyl)-1H-benzo[d]imidazol-3-ium chloride] registered a half-inhibitory concentration (IC50) of 110 ± 0.113 µM.

The target of a further test is α-glucosidase.
Assay: not given
The note with it: benzimidazole-bearing Schiff bases; cited from earlier work.
In the case of `COc1ccc(/C(CSc2nc3ccccc3[nH]2)=N\N=C\c2ccc(OC)cc2O)cc1` [I], the IC50 was 2.2 ± 0.1 µM.

The same test, now with this note: benzoylarylbenzimidazoles; cited from earlier work.
Regarding `O=C(c1ccccc1)c1ccc2nc(-c3ccc(O)cc3)[nH]c2c1` [II], the IC50 is 11.02 ± 0.04 µM.

The same test, now with this note: structural hybrids with piperazine and morpholine; cited from earlier work.
On to `CN1CCN(c2ccc3[nH]c(-c4ccc(O)cc4)nc3c2)CC1` [IV X=NMe], for which the half-maximal inhibitory concentration (IC50) is 2.25 ± 0.28 µM.

With `Oc1ccc(-c2nc3cc(N4CCOCC4)ccc3[nH]2)cc1` [IV X=O], the half-inhibitory concentration (IC50) is 3.4 ± 0.86 µM.
